Assay results taken from US11278682B2, “Device and method for aerosolized delivery of substance to a natural orifice of the body” (SIPNOSE LTD., priority 2014, dated 2022).
Where two headings read alike, the source gives them in different places. Each block holds one molecule with its values, some of them ahead of it.

Columns and labels:
[1] = SPECT-CT distribution of 99mTC-DTPA aerosol in nasal cavity and nasopharynx; format: in vivo; conditions: human volunteer, 300 microliters, air volume 20 ml
Procedure: The effects of air volume and air pressure on the distribution of 99mTC-DTPA aerosol in the nasal cavity and nasopharynx were examined using SPECT-CT for two human volunteers.
In both cases, the deposited material comprised 300 microliters of DTPA; 1.75 mc (milli Ciri) and the air volume was 20 ml. A pressure of 6 barg was used for the results shown in FIG. 31A, while a pressure of 4 barg was used for the results shown in FIG. 31B.

[2] = rat, in vivo
Procedure: For most liquid drug formulations, the drugs are dissolved in, suspended in or mixed with water-based liquids. However, many of the cannabis derivatives that show promise as therapeutic agents, such as the cannabinoids, need to be dissolved in oil. Therefore, a study was done to investigate uptake to the brain of an oil-based formulation. For this study, Fluorescein was dissolved in oil and administered intranasally, via the SipNose device, to rats. Fluorescein was administered to the control animals intravenously.

[3] = system: rats; assay: Repeated Topiramate dosing: body weight and food consumption; format: in vivo, rat
Description: The study investigated repeated intra-nasal delivery of Topiramate, using SipNose's novel device, in order to evaluate its effect on food consumption, body weight, and behavior and to measure the concentrations of the drug in the brain and plasma, in comparison to oral administration. Also, the safety of repeated dosing was examined.
The probability of appetite loss is a potential indicator for Topiramate. Food consumption was monitored during the experiment, and as the expectation was that food consumption will be reduced, care was taken in order to make sure it is not too dramatic or harmful to the animals.
A total of 38 rats were utilized. Thirty six (36) rats were divided into four groups of nine animals in each group. Two animals were used as the naïve, untreated group.
Topiramate was used in its original API form with no specific formulation. Topiramate was delivered to the nasal cavity either as a dry powder or as a solution of 10 mg/ml solubilized in Saline.
Application was by means of a SipNose device (FIG. 105) configured for use in the nasal cavities of rats. In order to alleviate the discomfort animal might endured during IN administration, Lidocaine was locally applied on the nasal area, prior to placement of the SipNose's device.
(§1) The study was performed according to the parameters of Table 31, for group allocation, and Table 32, for the study time-line. […] This provided a total of 1.56 mg per day per animal. For the liquid nasal samples, the administration was performed IN via SipNose's dedicated device at doses of 78 μL, from 10 mg/ml stock, or orally, after dilution to a dose volume of 200 μL. Food consumption was monitored two days before study initiation and daily during the study. Three (3) animals per group were sacrificed 45 minutes after the first dose of the first day, and six animals per group were sacrificed after 6 consecutive days of dosing, via CO2 asphyxiation.
Body weight was recorded upon arrival, 2 days before study initiation and once a day thereafter.

[4] = system: rats; conditions: cited from earlier work
[5] = in vivo; conditions: male, Sprague-Dawley, rat, 6 mg; for half-life: Half-life (estimated)
Procedure: (§3) A total of 13 male Sprague-Dawley rats were utilized. The animals were divided into four treated groups of three rats and one group with one naïve control rat.
(§4) The following tests were performed: • After sacrifice, gross pathology was performed, examining the nasal cavity (both sides, including the olfactory epithelium), the nasopharynx, paranasal sinus, trachea, lungs, brain (in several areas including the olfactory bulb), heart and larynx. • A histopathological evaluation of all groups of animals was made. • Blood was collected and plasma prepared 10, 30 and 90 min after the first and second administration and at termination.
(§5) IN application was carried out using solution at a dose volume of 300 μl per naris or as a powder (in two formulations). In all cases the total dose per rat was 6 mg of Topiramate. Prior to application of the test material, lidocaine was applied locally to the outer area of the nostril in order to decrease the level of distress.
(§6) Blood samples were collected into Li-Heparin tubes on ice, at 10, 30 and 90 min post first and second dosing. A blood volume of approximately 300 μl was obtained at each time point.
(§7) Topiramate was administered to the relevant study groups twice, with a five hour interval between administrations.

[6] = rat, in vivo; remark: listed apart in the source
Procedure: as §3, §4, §5, §6, §7

[7] = system: patients; conditions: commercial use; cited from earlier work
[8] = system: Sprague-Dawley rats; assay: Topiramate safety and toxicity study (food consumption, body weight, histopathology); format: in vivo, rat
Procedure: A study was performed to evaluate the safety and toxicity, including adverse effects, of Topiramate following intranasal administration via a SipNose device to Sprague-Dawley (SD) rats. A dose 8 times the therapeutic dose was administered in order to determine the maximal tolerated dose. Doses used in this study were chosen to assess the safety of the approved drug given via the nose with an embodiment of a sipNose device.
Animals were observed individually at least once during the first 30 minutes after dosing, with special attention during the first four hours and prior to termination. Observations included changes in skin and fur, eyes and mucous membranes, and also respiratory, circulatory, autonomic and central nervous systems, and somatomotor activity and behavior pattern.
Body weight was monitored one day after the animals' arrival, prior to administration of the test material and before termination.
Animals were sacrificed via carbon dioxide asphyxiation and gross pathology was performed, examining the major tissue and organ systems.
Lungs were evaluated in both right and left lobes. All tissues were trimmed into block cassettes and sent to L.E.M for slide preparation and staining.

[9] = system: rats; assay: Repeated Topiramate dosing: histopathological evaluation; format: in vivo, rat; conditions: all samples of all tissues examined, 6 days dosing
Procedure: as §1
(§2) Perfusion was performed under anesthesia with Isoflurane, using saline, for further PK examination of compounds in the brain.
Animals were sacrificed 45 minutes after the first administration of Day 1 and the last administration of Day 6, following blood sampling of 400 μL, if required, as described below. Three (3) rats, sacrificed after the first dosing day, were perfused with saline for PK analysis of blood and brain. Animals sacrificed on the last day of the study (after one dose only) were divided into 2 groups: one animal in each cage was bled and perfused with saline, after which the brain was collected and frozen in liquid nitrogen for PK analysis. […] Inflammatory status was evaluated. […]

[10] = Repeated Topiramate dosing: plasma and brain concentrations; format: in vivo; conditions: rat, 0.78 mg, rats
Procedure: as §1, §2
Animals were sacrificed 45 minutes after the first administration of Day 1 and the last administration of Day 6, following blood sampling of 400 μL, if required, as described below. Three (3) rats, sacrificed after the first dosing day, were perfused with saline for PK analysis of blood and brain. Animals sacrificed on the last day of the study ([…]) were divided into 2 groups: one animal in each cage was bled and perfused with saline, after which the brain was collected and frozen in liquid nitrogen for PK analysis. The second animal in the cage was sacrificed by CO2 asphyxiation and the nasal cavity (including the olfactory epithelium), nasopharynx, paranasal sinus, trachea, lungs, brain, heart and larynx were collected and fixed in 4% formaldehyde and Histopathological evaluation (H&E staining) was performed. Inflammatory status was evaluated. Slide preparation was followed by histopathological examination of the collected organs during scheduled termination and necropsy from all the animals. Tissues were trimmed, embedded in paraffin, sectioned at approximately five micron thickness and stained with Hematoxylin & Eosin (H&E).

[11] = Blood and brain absorption of insulin, SipNose nasal vs IV administration; format: in vivo, rabbit; conditions: rabbits, 0.5 U/kg
Procedure: In FIG. 76A-C, the efficacy of delivery of insulin to the brain is compared for the SipNose device vs. IV administration. The substance was Lispro insulin (5,807 Da) administered to rabbits. Four rabbits were used; all animals were given 0.5 U/kg of Human Insulin. Administration was via IV for rabbits 1 and 3 and via SipNose nasal administration for rabbits 2 and 4. Brain concentrations were measured using insulin quantitative ELISA.

[12] = Brain absorption of insulin after SipNose nasal administration (quantitative ELISA); format: in vivo; conditions: rabbit; 10 U/Kg via SipNose nasal administration; 1 h, 2 h, 3 h post administration
Procedure: The substance in this experiment is Human Insulin (Lispro insulin, 5807 Da); the animal model is a rabbit. Administration was 10 U/Kg of Human Insulin via SipNose nasal administration. Brain concentrations were measured using insulin quantitative ELISA at 1 h, 2 h, and 3 h post administration.

Molecule: O=C([O-])CN(CCN(CC(=O)[O-])CC(=O)[O-])CCN(CC(=O)[O-])CC(=O)[O-].[99Tc+4] [99mTC-DTPA]
distribution of aerosol (SPECT-CT) ([1]; pressure 4 barg): localized in the nasal cavity at the respiratory and olfactory epitheliums and also moved down into the Nasopharynx (upper dotted arrow) and into the GI tract
distribution of aerosol (SPECT-CT) ([1]; pressure 6 barg): localized in the nasal cavity at the respiratory and olfactory epitheliums (dashed arrow) and did not reach the Nasopharynx and did not enter the GI tract

early deposition in the spinal cord [2]: considerably less early deposition
uptake to the brain vs I/V [2]: considerably more uptake to the brain
Molecule: O=C1OC2(c3ccc(O)cc3Oc3cc(O)ccc32)c2ccccc21 [Fluorescein]
distribution within the brain [2]: distributed throughout the brain, rather than being concentrated in the cerebellum

Molecule: CC1(C)O[C@@H]2[C@@H](CO[C@@]3(COS(N)(=O)=O)OC(C)(C)O[C@@H]23)O1 [Topiramate]
food consumption ([3]; Group 2M liquid Topiramate oral): increased food consumption
increase in body weight relative to all other treatment groups ([3]; Group 2M, end of treatment period (day 6)): 2 fold
increase in body weight during the treatment phase ([3]; Group 2M, liquid Topiramate oral, 0.78 mg twice a day, 6 days): approximately 17%
food consumption ([3]; Group 3M liquid Topiramate IN SipNose): reduced food consumption
food consumption ([3]; Group 4M dry powder Topiramate IN SipNose): reduced food consumption
increase in body weight during the treatment phase ([3]; the other treatment groups (IN via SipNose)): ~8%
time for which ED50 is stable after oral administration [4]: 8 h
half-life [5]: 0.75 h
half-life ([5]; inhaled or intranasal): 4.32 h
AUC ([5]; po, AUC (estimated)): 11800 ng·h/mL
lower plasma value 10 minutes after second vs first administration ([6]; male, Sprague-Dawley, 10 min): 26%
plasma level 10 minutes after first administration, IN vs oral ([6]; male, Sprague-Dawley, 10 min): about twice the concentration found 10 minutes after oral administration
Half-life (estimated) ([6]; male, Sprague-Dawley, inhaled or intranasal, 6 mg): 5.07 h
higher plasma value 10 minutes after second vs first administration ([6]; male, Sprague-Dawley, po, 10 min): 84%
plasma levels 18 hours after the second administration [6]: dropped to pre-administration levels
patients with side effects such as somnolence, fatigue and dizziness [7]: over 10%
Food consumption on Day 2, relative to naïve rats ([8]; rats treated IN with Topiramate liquid): 98%
Food consumption on Day 2, relative to naïve rats ([8]; rats treated by Topiramate powder IN): around 60%
Food consumption on Day 2, relative to naïve rats ([8]; rats treated orally with Topiramate): 91%
body weight change from study initiation to termination ([8]; rats, all groups): relatively minor
drug-related pathological changes (histology) ([8]; rats, any animal, any investigated tissue, 6 mg twice, oral or IN): No drug-related pathological changes were detected
histopathological findings after repeated dosing [9]: No major histopathological findings were observed
concentration at 45 min ([10]; brain, other: IN (intranasal) via SipNose device, group 4M powder IN, read-out: Topiramate brain concentration following the 11th administration): 1030 ± 172 ng/mL
concentration at 45 min ([10]; plasma, other: IN (intranasal) via SipNose device, group 3M liquid IN, 45 minutes, read-out: Topiramate plasma concentration after the first administration): 1510 ± 505 ng/mL
concentration at 45 min ([10]; plasma, other: IN (intranasal) via SipNose device, group 4M powder IN, 45 minutes, read-out: Topiramate plasma concentration after the first administration): 4140 ± 597 ng/mL
concentration at 45 min ([10]; plasma, other: IN (intranasal) via SipNose device, group 4M powder IN, read-out: Topiramate plasma (blood) concentration following the 11th administration): 1980 ± 256 ng/mL
concentration at 45 min ([10]; plasma, po, group 2M liquid oral, 45 minutes, read-out: Topiramate plasma concentration after the first administration): 2070 ± 228 ng/mL

Molecule: Lispro Insulin: Human Insulin (Lispro insulin, 5807 Da)
distribution of insulin in parts of the brain ([11]; SipNose direct-nose-to-brain): Insulin in both anterior and posterior parts of the brain
efficiency of delivery to the brain compared to I/V ([11]; SipNose nasal vs IV): highly efficient when compared to I/V administration
delivery of insulin to the brain (brain concentration, ELISA) [12]: delivered to the brain with the SipNose device and can be specifically detected
